According to patent US20250144067A1, “PERSONALIZED STARVATION THERAPY FOR CANCER” (Faeth Therapeutics, Inc., priority 2021, published 2025):
Structures can show the parent of a compound that is named as a salt. Where two headings read alike, the source gives them in different places.

How the values were obtained:
[1] = test system: NCI-H292 lung cancer cells; assay: FDA drug screening, complete media vs cholesterol-free media with simvastatin (TABLE 2); type: cell-based, human
[2] = test system: NCI-H292 lung cancer cells; assay: FDA drug screening, complete media vs cholesterol-free media without statin (TABLE 1); type: cell-based, human
[3] = NCI-H292 cells, drug in cholesterol-free media with simvastatin 0.04 μM
[4] = NCI-H292 cells, drug in complete media
[5] = complete media vs cholesterol-free media + simvastatin (0.04 μM), >0 enhanced anti-cancer activity, about 0 neutral, <0 antagonist
[6] = NCI-H292 cells, cholesterol-free media without statin, FDA drug library screen
[7] = NCI-H292 cells, complete media, FDA drug library screen
[8] = NCI-H292 cells, cholesterol-free media without statin
[9] = complete vs cholesterol-free media, greater than 0 enhanced anti-cancer activity, about 0 neutral, below 0 antagonists
[10] = NCI-H292 cells, cholesterol-free media with simvastatin 0.04 μM, FDA drug library screen (TABLE 2)
[11] = NCI-H292 cells, complete media, FDA drug library screen (TABLE 2)
[12] = complete media minus cholesterol-free media + simvastatin (0.04 μM), […]
[13] = Complete minus Cholesterol-free, […]
[14] = NCI-H292 cells, FDA drug library screen, cholesterol-free media with simvastatin 0.04 μM
[15] = NCI-H292 cells, FDA drug library screen, complete media
[16] = complete media minus cholesterol-free media + simvastatin, >0 enhanced anti-cancer activity, about 0 neutral, <0 antagonist
[17] = complete media minus cholesterol-free media + simvastatin (0.04 μM), >0 enhanced anti-cancer activity, about 0 neutral, <0 antagonist
[18] = Complete minus Cholesterol-free, >0 enhanced anti-cancer activity, about 0 neutral, <0 antagonist
[19] = Complete minus Cholesterol-free, greater than 0 enhanced anti-cancer activity, about 0 neutral, below 0 antagonist
[20] = NCI-H292 cells, FDA drug library screen, cholesterol-free media without statin

`c1cnc(N2CCN(Cc3ccc4c(c3)OCO4)CC2)nc1` [Piribedil] was tested, and the “Cholesterol-free media + simvastatin (0.04 μM)” value [1, 3] was 1.189, the “Complete Media” value [1, 4] was 0.9878 and the Difference [1, 5] was −0.20. It also gave a Cholesterol-free [2, 6] of 0.8521, a Complete [2, 7] of 1.367 and a Difference ([2]; complete vs cholesterol-free media, >0 enhanced anti-cancer activity, about 0 neutral, <0 antagonist) of 0.51.
In the case of Nafamostat (mesylate), the “Cholesterol-free media + simvastatin (0.04 μM)” value [1, 3] is reported as 1.2, the “Complete Media” value [1, 4] is reported as 0.9501 and the Difference [1, 5] is reported as −0.25. For the same compound, the Cholesterol-free [2, 8] was 1.215, the Complete ([2]; NCI-H292 cells, complete media) was 0.8839 and the Difference [2, 9] was −0.33.
In the case of `COc1cccc2c1C(=O)c1c(O)c3c(c(O)c1C2=O)C[C@@](O)(C(C)=O)C[C@@H]3O[C@H]1C[C@H](N)[C@H](O)[C@H](C)O1` [Daunorubicin (Hydrochloride)], the “Cholesterol-free media + simvastatin (0.04 μM)” value [1, 10] is reported as 0.006543, the “Complete Media” value [1, 11] is reported as −0.007495 and the Difference [1, 12] is reported as −0.01. For the same compound, the Difference [2, 13] was −0.01, the Cholesterol-free [2, 6] was 0.01433 and the Complete [2, 7] was 0.008412.
`CC(C)(C)C(=O)OCC(=O)[C@H]1CC[C@H]2[C@@H]3CCC4=CC(=O)CC[C@]4(C)[C@H]3CC[C@]12C` [Desoxycorticosterone pivalate] was tested, and the “Cholesterol-free media + simvastatin (0.04 μM)” value [1] was 1.728, the “Complete Media” value [1] was 1.762 and the Difference [1] was 0.03. For the same compound, the Cholesterol-free [2] was 1.574, the Complete [2] was 1.04 and the Difference [2] was −0.53.
In the case of Enalapril (maleate), the “Cholesterol-free media + simvastatin (0.04 μM)” value [1, 14] is reported as 1.132, the “Complete Media” value [1, 15] is reported as 1.317 and the Difference [1, 16] is reported as 0.19. For the same compound, the Cholesterol-free [2, 8] was 1.397 and the Difference [2, 9] was −0.34.
`C[C@@H](O)[C@H]1C(=O)N2C(C(=O)O)=C(SCCN=CN)C[C@H]12` [Imipenem monohydrate] was tested, and the “Cholesterol-free media + simvastatin (0.04 μM)” value [1, 10] was 0.9916, the “Complete Media” value [1, 11] was 0.9548 and the Difference [1, 17] was −0.04. For the same compound, the Difference [2, 18] was −0.03, the Cholesterol-free [2, 6] was 1.1 and the Complete [2, 7] was 1.066.
With `COc1cc([C@@H]2c3cc4c(cc3[C@H](O)[C@H]3COC(=O)[C@H]23)OCO4)cc(OC)c1OC` [Podofilox] the “Cholesterol-free media + simvastatin (0.04 μM)” value [1, 10] was 0.1667, the “Complete Media” value [1, 11] was 0.1215 and the Difference [1, 12] was −0.05. It also gave a Difference [2, 13] of −0.01, a Cholesterol-free [2, 6] of 0.05355 and a Complete [2, 7] of 0.04847.
With `C[C@H]1C[C@H]2[C@@H]3CCC4=CC(=O)C=C[C@]4(C)[C@@]3(Cl)[C@@H](O)C[C@]2(C)[C@@]1(O)C(=O)CO` [Beclometasone] the “Cholesterol-free media + simvastatin (0.04 μM)” value ([1]; NCI-H292 cells, cholesterol-free media with simvastatin 0.04 μM, […]) was 0.7122, the “Complete Media” value ([1]; NCI-H292 cells, complete media, […]) was 0.7656 and the Difference ([1]; complete media minus cholesterol-free media + simvastatin, […]) was 0.05. The Difference [2, 13] was −0.04, the Cholesterol-free [2, 6] was 1.244 and the Complete [2, 7] was 1.205.
With `C#C[C@]1(O)C=C[C@H]2[C@@H]3CCC4=CC(=O)CC[C@@H]4[C@H]3CC[C@@]21CC` [Gestodene] the “Cholesterol-free media + simvastatin (0.04 μM)” value ([1]; NCI-H292 cells, FDA library drug in cholesterol-free media with simvastatin 0.04 μM) was 1.543, the “Complete Media” value ([1]; NCI-H292 cells, FDA library drug in complete media) was 1.003 and the Difference [1, 5] was −0.54. For the same compound, the Difference [2, 19] was −0.11, the Cholesterol-free [2, 20] was 1.134 and the Complete [2, 15] was 1.023.
In the case of `CC1=NN(c2ccc(C)c(C)c2)C(=O)/C1=N\Nc1cccc(-c2cccc(C(=O)O)c2)c1O` [Eltrombopag], the “Cholesterol-free media + simvastatin (0.04 μM)” value [1, 14] is reported as 1.011, the “Complete Media” value [1, 15] is reported as 0.868 and the Difference [1, 5] is reported as −0.14. For the same compound, the Difference [2, 18] was −0.30 and the Cholesterol-free [2, 8] was 1.47.
`OC[C@H]1O[C@@H](O[C@@H]2[C@@H](CO)OC(O)(CO)[C@H]2O)[C@H](O)[C@@H](O)[C@H]1O` (mixture of isomers) [Lactulose] was tested, and the “Cholesterol-free media + simvastatin (0.04 μM)” value ([1]; NCI-H292 cells, cholesterol-free media with simvastatin 0.04 μM, cell growth value in FDA drug screen) was 0.7227, the “Complete Media” value ([1]; NCI-H292 cells, complete media, cell growth value in FDA drug screen) was 0.8015 and the Difference [1, 16] was 0.08. It also gave a Difference [2, 19] of −0.16, a Cholesterol-free [2, 20] of 1.109 and a Complete [2, 15] of 0.9456.
`CC(=O)OCC[N+](C)(C)C.[I-]` [Acetylcholine (iodide)] was tested, and the “Cholesterol-free media + simvastatin (0.04 μM)” value [1, 3] was 1.762, the “Complete Media” value [1, 4] was 1.59 and the Difference [1, 5] was −0.17. The Cholesterol-free [2, 8] was 1.351, the Complete ([2]; NCI-H292 cells, complete media) was 1 and the Difference [2, 9] was −0.35.
In the case of `CCC(Cc1c(I)cc(I)c(N)c1I)C(=O)O` (stereo not shown) [Iopanoic acid], the “Cholesterol-free media + simvastatin (0.04 μM)” value [1, 14] is reported as 1.115, the “Complete Media” value [1, 15] is reported as 1.353 and the Difference [1, 16] is reported as 0.24. The Difference [2, 19] was −0.10, the Cholesterol-free [2, 20] was 1.02 and the Complete [2, 15] was 0.9191.
In the case of `O=C(O)CC(O)(CC(=O)O)C(=O)O` [Citric acid], the “Cholesterol-free media + simvastatin (0.04 μM)” value [1, 10] is reported as 1.227, the “Complete Media” value [1, 11] is reported as 1.209 and the Difference [1, 17] is reported as −0.02. It also gave a Difference [2, 19] of −0.17, a Cholesterol-free [2, 20] of 0.92 and a Complete [2, 15] of 0.7466.
